From US7601746B2 (Shionogi & Co., Ltd., priority 2003, dated 2009) come the findings set out here.

The first assay concerns the target T1, human TPO receptor (hTPOR) (Homo sapiens, UniProt P40238).
T1 construct: expressed in transfected cells; host or cells: BaF-B03 (murine IL-3 dependent cell line)
T1 sequence (P40238 26-635): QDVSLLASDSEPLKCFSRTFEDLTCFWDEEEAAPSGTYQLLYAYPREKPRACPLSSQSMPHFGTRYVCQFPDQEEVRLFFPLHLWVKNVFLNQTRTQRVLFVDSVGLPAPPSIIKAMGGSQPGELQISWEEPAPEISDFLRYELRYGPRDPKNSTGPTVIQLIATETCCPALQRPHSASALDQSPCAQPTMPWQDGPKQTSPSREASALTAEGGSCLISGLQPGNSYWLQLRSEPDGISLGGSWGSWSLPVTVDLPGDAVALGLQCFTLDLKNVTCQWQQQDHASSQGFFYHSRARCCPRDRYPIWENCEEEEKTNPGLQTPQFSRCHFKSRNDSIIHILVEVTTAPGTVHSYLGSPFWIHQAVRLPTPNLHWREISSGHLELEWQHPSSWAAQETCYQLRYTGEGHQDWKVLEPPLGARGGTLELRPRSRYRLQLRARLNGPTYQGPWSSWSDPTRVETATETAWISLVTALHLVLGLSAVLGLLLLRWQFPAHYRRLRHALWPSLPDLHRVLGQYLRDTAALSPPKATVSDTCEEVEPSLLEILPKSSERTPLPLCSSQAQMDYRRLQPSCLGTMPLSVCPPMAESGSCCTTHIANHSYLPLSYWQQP
As to the kind of experiment: Thrombopoietic activity: proliferation of TPO dependent BaF/hTPOR cells (WST-1, absorbance at 450 nm). It counts as cell-based. To be noted: 20 h + 4 h WST-1, ED50 = half concentration of the concentration showing the maximum thrombopoietic activity, Table 1. The method in brief:
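Proliferation read-out: WST-1 absorbance at 450 nm after 20 h compound exposure plus 4 h reagent, using IL-3-deprived BaF/hTPOR cells (5×10^4 per well) dependent on human TPO receptor signalling. ED50 defined as half the concentration producing maximal activity.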
In general terms: Tetrazolium assays rely on reduction of a dye to a coloured formazan, in cell work by metabolically active cells.
Usually EC50 stands for the concentration giving half of the maximal effect. Turning to `CCCCCOCc1cccc(-c2csc(NC(=O)c3cc(Cl)c(C=C(C)C(=O)O)c(Cl)c3)n2)c1F` [Compound B77, 3-{2,6-dichloro-4-[4-(2-fluoro-3-{n-pentyloxymethyl}phenyl)thiazol-2-ylcarbamoyl]phenyl}-2-methylacrylic acid], the EC50 came to 3.06 nM.

Take `CC(=Cc1c(F)cc(C(=O)Nc2nc(-c3cccc(CCCOCCC(C)(C)C)c3F)cs2)cc1F)C(=O)O` [Compound B40, 3-[2,6-difluoro-4-(4-{3-[3-(3,3-dimethylbutyloxy)propyl]-2-fluorophenyl}thiazol-2-ylcarbamoyl)phenyl]-2-methylacrylic acid]: the EC50 stood at 0.88 nM.

With `CCOCCCc1cccc2c1CCc1sc(NC(=O)c3cc(Cl)c(C=C(C)C(=O)O)c(Cl)c3)nc1-2` [Compound A10, 3-{2,6-dichloro-4-[4,5-dihydro-6-(3-ethyloxypropyl)naphtho[1,2-d]thiazol-2-ylcabamoyl]phenyl}-2-methylacrylic acid], the EC50 is 1.2 nM.

For the compound `COc1c(-c2csc(NC(=O)c3cc(F)c(/C=C(\C)C(=O)O)c(F)c3)n2)cccc1C(CC(C)(C)C)OC` (centres unmarked) [Compound B349, (E)-3-(2,6-difluoro-4-{4-[2-methyloxy-3-(1-methyloxy-3,3-dimethylbutyl)phenyl]thiazol-2-ylcarbamoyl}phenyl)-2-methylacrylic acid], the EC50 came to 16.8 nM.

Consider `COc1c(CCCOCC2CCCC2)cccc1-c1csc(NC(=O)c2cc(Cl)c(/C=C(\C)C(=O)O)c(Cl)c2)n1` [Compound B1949, (E)-3-(2,6-dichloro-4-{4-[3-(3-cyclopentylmethyloxypropyl)-2-methyloxyphenyl]thiazol-2-ylcarbamoyl}phenyl)-2-methylacrylic acid], for which the EC50 came to 13.2 nM.

As to `CCCCCCCCOc1cccc(-c2csc(NC(=O)c3cc(F)c(/C=C(\C)C(=O)O)c(F)c3)n2)c1OC` [Compound B2004, (E)-3-{2,6-difluoro-4-[4-(2-methyloxy-3-octyloxyphenyl)thiazol-2-ylcarbamoyl]phenyl}-2-methylacrylic acid], the concentration for a half-maximal effect (EC50) is 13.9 nM.

`COC(=Cc1c(F)cc(C(=O)Nc2nc(-c3cccc(COCC(C)(C)C)c3OC)cs2)cc1F)C(=O)O` (stereo in doubt) [Compound B2020, (E)-3-(4-{4-[3-(2,2-dimethylpropyloxymethyl)-2-methyloxyphenyl]thiazol-2-ylcarbamoyl}-2,6-difluorophenyl)-2-methyloxyacrylic acid]: the EC50 came out at 10.9 nM.

With `CCC(CC)COCCc1cccc(-c2csc(NC(=O)c3cc(Cl)c(/C=C(\OC)C(=O)O)c(Cl)c3)n2)c1OC` [Compound B1960, (Z)-3-[2,6-dicholoro-4-(4-{3-[2-(2-ethylbutyloxy)ethyl]-2-methyloxyphenyl}thiazol-2-ylcarbamoyl)phenyl]-2-methyloxyacrylic acid], the concentration for a half-maximal effect (EC50) stood at 10.1 nM.

As for `CCCCCCCOCc1cccc(-c2csc(NC(=O)c3cc(F)c(/C=C(\C)C(=O)O)c(F)c3)n2)c1OC` [Compound B1990, (E)-3-{2,6-difluoro-4-[4-(3-heptyloxymethyl-2-methyloxyphenyl)thiazol-2-ylcarbamoyl]phenyl}-2-methylacrylic acid], the concentration for a half-maximal effect (EC50) came to 12.1 nM.

With `CCCCCCCCCCOCc1cccc(-c2csc(NC(=O)c3cc(F)c(C=C(C)C(=O)O)c(F)c3)n2)c1F` [Compound B32, 3-(2,6-difluoro-4-{4-[2-fluoro-3-(n-decyloxymethyl)phenyl]thiazol-2-ylcarbamoyl}phenyl)-2-methylacrylic acid], the EC50 was 3.03 nM.

For `COC(CCc1cccc2c1CCc1sc(NC(=O)c3cc(F)c(C=C(C)C(=O)O)c(F)c3)nc1-2)C(C)(C)C` (centres unmarked) [Compound A4, 3-{2,6-difluoro-4-[4,5-dihydro-6-(3-methyloxy-4,4-dimethylpentyl)naphtho[1,2-d]thiazol-2-ylcabamoyl]phenyl}-2-methylacrylic acid], the EC50 amounted to 1.8 nM.

With `CCCCCCCCOC(C)c1cccc(-c2csc(NC(=O)c3cc(F)c(C=C(C)C(=O)O)c(F)c3)n2)c1F` (centres unmarked) [Compound B30, 3-(2,6-difluoro-4-{4-[2-fluoro-3-(1-n-octyloxyethyl)phenyl]thiazol-2-ylcarbamoyl}phenyl)-2-methylacrylic acid], the EC50 was determined as 0.78 nM.

Regarding `CC(=Cc1c(F)cc(C(=O)Nc2nc(-c3cccc(CCCOCC(C)(C)C)c3F)cs2)cc1F)C(=O)O` [Compound B20], the 50% effective concentration (EC50) came to 0.81 nM.

For the compound `CCCCCCCCCCCC(OC)c1cccc(-c2csc(NC(=O)c3cc(F)c(C=C(C)C(=O)O)c(F)c3)n2)c1F` (centres unmarked) [Compound B48, 3-(2,6-difluoro-4-{4-[2-fluoro-3-(1-methyloxydodecyl)phenyl]thiazol-2-ylcarbamoyl}phenyl)-2-methylacrylic acid], the EC50 stood at 2.23 nM.

With `COc1c(CCCOCC(C)(C)C)cccc1-c1csc(NC(=O)c2cc(Cl)c(/C=C(\C)C(=O)O)c(Cl)c2)n1` [Compound B1833, (E)-3-[2,6-dichloro-4-(4-{3-[3-(2,2-dimethylpropyloxy)propyl)-2-methyloxyphenyl]thiazol-2-ylcarbamoyl}phenyl)-2-methylacrylic acid], the EC50 was 19 nM.

On to `COc1c(CCOCCC(C)C)cccc1-c1csc(NC(=O)c2cc(F)c(/C=C(\C)C(=O)O)c(F)c2)n1` [Compound B1954], for which the EC50 stood at 12.9 nM.

For `CCCCOC(CC)c1cccc(-c2csc(NC(=O)c3cc(Cl)c(C=C(C)C(=O)O)c(Cl)c3)n2)c1F` (centres unmarked) [Compound B82, 3-(4-{4-[3-(1-n-butyloxypropyl)-2-fluorophenyl]thiazol-2-ylcarbamoyl}-2,6-dichlorophenyl)-2-methylacrylic acid], the EC50 came to 1.07 nM.

For the compound `CCCOC(C)c1cccc(-c2csc(NC(=O)c3cc(Cl)c(C=C(C)C(=O)O)c(Cl)c3)n2)c1F` (centres unmarked) [Compound B97, 3-(2,6-dichloro-4-{4-[2-fluoro-3-(1-n-propyloxyethyl)phenyl]thiazol-2-ylcarbamoyl)phenyl]-2-methylacrylic acid], the half-maximal effective concentration (EC50) is 0.94 nM.

Consider `CCOC(c1cccc(-c2csc(NC(=O)c3cc(Cl)c(C=C(C)C(=O)O)c(Cl)c3)n2)c1F)C(C)(C)C` (centres unmarked) [Compound B56, 3-(2,6-dichloro-4-{4-[3-(1-ethyloxy-2,2-dimethylpropyl)-2-fluorophenyl]thiazol-2-ylcarbamoyl}phenyl)-2-methylacrylic acid], for which the EC50 was 2.7 nM.

Consider `CC(=Cc1c(F)cc(C(=O)Nc2nc(-c3cccc(CCC(C)(C)C)c3F)cs2)cc1F)C(=O)O` [Compound B2, 3-(2,6-difluoro-4-{4-[3-(3,3-dimethylbutyl)-2-fluorophenyl]thiazol-2-ylcarbamoyl}phenyl)-2-methylacrylic acid], for which the concentration for a half-maximal effect (EC50) worked out at 4 nM.

Staying with this assay, now noted: 20 h + 4 h WST-1, ED50 = half concentration of the concentration showing the maximum thrombopoietic activity, Table 2.
For `COc1c(CCOCCCCCl)cccc1-c1csc(NC(=O)c2cc(Cl)c(/C=C(\C)C(=O)O)c(Cl)c2)n1` [Compound B1963, (E)-3-[2,6-dichloro-4-(4-{3-[2-(4-chlorobutyloxy)ethyl]-2-methyloxyphenyl}thiazol-2-ylcarbamoyl)phenyl]-2-methylacrylic acid], the concentration giving a half-maximal response (EC50) worked out at 28.6 nM.

Take `CO/C(=C\c1c(Cl)cc(C(=O)Nc2nc(-c3cccc(CCCOCC(C)(C)C)c3F)c(OC)s2)cc1Cl)C(=O)O` [Compound B1905]: the EC50 turned out to be 26.7 nM.

Consider `CO/C(=C\c1c(Cl)cc(C(=O)Nc2nc(-c3cccc(CCCOCC(C)(C)C)c3)c(OC)s2)cc1Cl)C(=O)O` [Compound B1901, (Z)-3-[2,6-dichloro-4-(4-{3-[3-(2,2-dimethylpropyloxy)propyl]phenyl}-5-methyloxythiazol-2-ylcarbamoyl)phenyl]-2-methyloxyacrylic acid], for which the EC50 was found to be 24.2 nM.
